According to patent publication US20240368090A1, “SOLID STATE FORMS OF D[…] PROCESS FOR THEIR PREPARATION” (REDDY’S LABORATORIES LIMITED, priority 2023, published 2024):

Test: physical and chemical stability under standard stability conditions
Type: physicochemical
Method: In another aspect of the present disclosure, the crystalline form DP-9 of Daprodustat which is physically & chemically stable under standard stability conditions like 25° C.-60% RH, 40° C.-75% RH and 2-8° C. for at least 3 months.

Measured: physically & chemically stable for at least

O=C(O)CNC(=O)C1C(=O)N(C2CCCCC2)C(=O)N(C2CCCCC2)C1=O [Form DP-9]
at least 3 months: 2-8° C. | 25° C.-60% RH | 40° C.-75% RH
